# Test results: the supplement of paper PMC10307832
# Tests used:
# Assay in all cases: relative viability (nuclei count vs DMSO), 5 days (fraction); higher = more cells survive
# [1] = tested on: ChaGo-K-1
# Procedure, shortened: (§1)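 Nuclei were stained with Hoechst during a one-step fixation (final 0.05% Triton X-100, 1% formaldehyde, 1 ug/ml Hoechst) carried out 5 days after dosing, then counted on 4× images. The cells, lung cancer lines in 1536-well plates, had been dosed by pin tool the day after seeding with one drug alone or a fixed anchor-drug dose plus five library-drug doses (not always all listed) in √10 steps. Relative viability is the nuclei count in treated wells divided by that in vehicle wells, and each value is the median of duplicate plates.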
# [2] = tested on: EKVX
# Procedure, shortened: as §1
# [3] = tested on: EPLC-272H
# Procedure, shortened: as §1
# [4] = tested on: H3255
# Procedure, shortened: as §1
# [5] = tested on: HCC-827
# Procedure, shortened: as §1
# [6] = tested on: HOP-62
# Procedure, shortened: as §1
# [7] = tested on: LCLC-97TM1
# Procedure, shortened: as §1
# [8] = tested on: LK-2
# Procedure, shortened: as §1
# [9] = tested on: LU99A
# Procedure, shortened: as §1
# [10] = tested on: LXF-289
# Procedure, shortened: as §1
# [11] = tested on: NCI-H1355
# Procedure, shortened: as §1
# [12] = tested on: NCI-H1650
# Procedure, shortened: as §1
# [13] = tested on: NCI-H1993
# Procedure, shortened: as §1
# [14] = tested on: NCI-H2170
# Procedure, shortened: as §1
# [15] = tested on: NCI-H2228
# Procedure, shortened: as §1
# [16] = tested on: NCI-H2405
# Procedure, shortened: as §1
# [17] = tested on: NCI-H3122
# Procedure, shortened: as §1
# [18] = tested on: NCI-H441
# Procedure, shortened: as §1
# [19] = tested on: NCI-H522
# Procedure, shortened: as §1
# [20] = tested on: PC-3 [JPC-3]
# Procedure, shortened: as §1
# [21] = tested on: SK-LU-1
# Procedure, shortened: as §1
# [22] = tested on: SW 1573
# Procedure, shortened: as §1
# [23] = tested on: UMC-11
# Procedure, shortened: as §1
structure (smiles),measurement,setting,value
Cc1cn(-c2cc(NC(=O)c3ccc(C)c(Nc4nccc(-c5cccnc5)n4)c3)cc(C(F)(F)F)c2)cn1 [Nilotinib] + CC(=O)c1c(C)c2cnc(Nc3ccc(N4CCNCC4)cn3)nc2n(C2CCCC2)c1=O [Palbociclib] (partner 0.5 µM),relative viability,[1]; first compound 0.001 µM,0.898
same,relative viability,[1]; first compound 0.003162 µM,1.25
same,relative viability,[1]; first compound 0.01 µM,1.06
same,relative viability,[1]; first compound 0.03162 µM,0.873
same,relative viability,[1]; first compound 0.1 µM,0.894
same,relative viability,[2]; first compound 0.001 µM,0.372
same,relative viability,[2]; first compound 0.003162 µM,0.492
same,relative viability,[2]; first compound 0.01 µM,0.479
same,relative viability,[2]; first compound 0.03162 µM,0.379
same,relative viability,[2]; first compound 0.1 µM,0.62
same,relative viability,[3]; first compound 0.001 µM,0.348
same,relative viability,[3]; first compound 0.003162 µM,0.345
same,relative viability,[3]; first compound 0.03162 µM,0.291
same,relative viability,[3]; first compound 0.1 µM,0.39
same,relative viability,[4]; first compound 0.001 µM,0.317
same,relative viability,[4]; first compound 0.003162 µM,0.286
same,relative viability,[4]; first compound 0.01 µM,0.313
same,relative viability,[4]; first compound 0.03162 µM,0.308
same,relative viability,[4]; first compound 0.1 µM,0.287
same,relative viability,[5]; first compound 0.001 µM,0.56
same,relative viability,[5]; first compound 0.003162 µM,0.451
same,relative viability,[5]; first compound 0.03162 µM,0.435
same,relative viability,[5]; first compound 0.1 µM,0.469
same,relative viability,[6]; first compound 0.003162 µM,0.425
same,relative viability,[6]; first compound 0.01 µM,0.439
same,relative viability,[7]; first compound 0.001 µM,0.222
same,relative viability,[7]; first compound 0.003162 µM,0.245
same,relative viability,[7]; first compound 0.01 µM,0.225
same,relative viability,[7]; first compound 0.1 µM,0.254
same,relative viability,[8]; first compound 0.001 µM,0.751
same,relative viability,[8]; first compound 0.003162 µM,0.475
same,relative viability,[8]; first compound 0.01 µM,0.788
same,relative viability,[8]; first compound 0.03162 µM,0.698
same,relative viability,[8]; first compound 0.1 µM,0.992
same,relative viability,[9]; first compound 0.001 µM,0.408
same,relative viability,[9]; first compound 0.003162 µM,0.377
same,relative viability,[9]; first compound 0.01 µM,0.402
same,relative viability,[9]; first compound 0.03162 µM,0.44
same,relative viability,[9]; first compound 0.1 µM,0.314
same,relative viability,[10]; first compound 0.001 µM,0.673
same,relative viability,[10]; first compound 0.003162 µM,0.771
same,relative viability,[10]; first compound 0.01 µM,0.666
same,relative viability,[10]; first compound 0.03162 µM,0.607
same,relative viability,[10]; first compound 0.1 µM,0.577
same,relative viability,[11]; first compound 0.001 µM,0.423
same,relative viability,[11]; first compound 0.003162 µM,0.457
same,relative viability,[11]; first compound 0.01 µM,0.486
same,relative viability,[11]; first compound 0.03162 µM,0.494
same,relative viability,[11]; first compound 0.1 µM,0.468
same,relative viability,[12]; first compound 0.001 µM,0.329
same,relative viability,[12]; first compound 0.003162 µM,0.402
same,relative viability,[12]; first compound 0.01 µM,0.324
same,relative viability,[12]; first compound 0.03162 µM,0.309
same,relative viability,[12]; first compound 0.1 µM,0.298
same,relative viability,[13]; first compound 0.001 µM,0.688
same,relative viability,[13]; first compound 0.003162 µM,0.705
same,relative viability,[13]; first compound 0.01 µM,0.762
same,relative viability,[13]; first compound 0.03162 µM,0.624
same,relative viability,[13]; first compound 0.1 µM,0.851
same,relative viability,[14]; first compound 0.001 µM,0.373
same,relative viability,[14]; first compound 0.003162 µM,0.474
same,relative viability,[14]; first compound 0.01 µM,0.436
same,relative viability,[14]; first compound 0.03162 µM,0.379
same,relative viability,[14]; first compound 0.1 µM,0.44
same,relative viability,[15]; first compound 0.001 µM,0.677
same,relative viability,[15]; first compound 0.003162 µM,0.924
same,relative viability,[15]; first compound 0.01 µM,0.935
same,relative viability,[15]; first compound 0.03162 µM,0.395
same,relative viability,[15]; first compound 0.1 µM,0.406
same,relative viability,[16]; first compound 0.001 µM,0.493
same,relative viability,[16]; first compound 0.003162 µM,0.485
same,relative viability,[16]; first compound 0.01 µM,0.529
same,relative viability,[16]; first compound 0.03162 µM,0.467
same,relative viability,[16]; first compound 0.1 µM,0.404
same,relative viability,[17]; first compound 0.001 µM,0.0877
same,relative viability,[17]; first compound 0.003162 µM,0.191
same,relative viability,[17]; first compound 0.01 µM,0.243
same,relative viability,[17]; first compound 0.03162 µM,0.198
same,relative viability,[17]; first compound 0.1 µM,0.175
same,relative viability,[18]; first compound 0.001 µM,0.204
same,relative viability,[18]; first compound 0.003162 µM,0.209
same,relative viability,[18]; first compound 0.01 µM,0.197
same,relative viability,[18]; first compound 0.03162 µM,0.201
same,relative viability,[18]; first compound 0.1 µM,0.192
same,relative viability,[19]; first compound 0.03162 µM,0.819
same,relative viability,[19]; first compound 0.1 µM,0.805
same,relative viability,[20]; first compound 0.001 µM,0.526
same,relative viability,[20]; first compound 0.01 µM,0.542
same,relative viability,[20]; first compound 0.03162 µM,0.566
same,relative viability,[20]; first compound 0.1 µM,0.518
same,relative viability,[21]; first compound 0.001 µM,0.355
same,relative viability,[21]; first compound 0.003162 µM,0.334
same,relative viability,[21]; first compound 0.01 µM,0.405
same,relative viability,[21]; first compound 0.03162 µM,0.311
same,relative viability,[21]; first compound 0.1 µM,0.335
same,relative viability,[22]; first compound 0.001 µM,0.391
same,relative viability,[22]; first compound 0.003162 µM,0.408
same,relative viability,[22]; first compound 0.01 µM,0.363
same,relative viability,[22]; first compound 0.03162 µM,0.271
same,relative viability,[22]; first compound 0.1 µM,0.32
same,relative viability,[23]; first compound 0.001 µM,0.299
same,relative viability,[23]; first compound 0.003162 µM,0.296
same,relative viability,[23]; first compound 0.01 µM,0.299
same,relative viability,[23]; first compound 0.03162 µM,0.374
same,relative viability,[23]; first compound 0.1 µM,0.313
